Measurements taken from patent publication US20260212953A1, “An Integrative Framework to Identify Therapeutic Molecules for Treating Preterm Birth” (The Regents of the University of California, priority 2023, published 2026).
Entries after “also recorded” stand apart in the source; their conditions may differ.

Legend:
[1] = tested on: primary human uterine smooth muscle cells (HUtSMC); experiment: Collagen gel contraction assay; assay type: cell-based; details: for effect on HUtSMC contraction, contractile state stimulated by oxytocin: 100 nM oxytocin, OXY+DMSO as control; for reduction of oxytocin-induced myometrial contractility: on average over the four named pre-clinical drugs; for effect on HUtSMC contraction, quiescent state: PBS+DMSO as control
From the text: We performed experiments to determine the functional roles of the small molecules in regulating labor timing. Because labor onset is hallmarked by muscle contraction in the uterus, we asked whether these small molecules could alter smooth muscle contraction in the uterus. We performed collagen gel contraction assays on primary human uterine smooth muscle cells (HUtSMC) (Ying et al., 2015) to examine the modes of action of the top 9 candidate drugs from our prediction (FIG. 5D). For each drug, we tested its effect on modulating HUtSMC contractility in stimulated (by oxytocin to mimic labor-like phenotypes) and quiescent states by treating cells with oxytocin and vehicle, respectively. In either condition, we determined the pharmacological effects of our identified compounds on cellular contraction (each with at least 8 replicates).
Primary Human Uterine Smooth Muscle Cells (HUISMC) were purchased from PromoCells (Cat #C-12575, Fisher Scientific, MA). Collagen gel contraction assays were performed following (Kita et al., 2008; Ying et al., 2015) with modifications. Briefly, 150 ul of collagen (Cat #5074, SigmaAldrich) was added to each well in a 48-well plate. 80,000 HUtSMC suspension in 300 ul Smooth Muscle Cell Growth Basal Medium (Lonza #CC-3181) were seeded to each well after collagen polymerization for an hour. The cells were then treated with either testing compounds or DMSO in the presence of 100 nM oxytocin or PBS control. We carefully detached the collagen from the wells by tips after 1 hour incubation at 37° C., and fixed the cells with 4% paraformaldehyde in PBS for 30 minutes after 18 hours to ensure the equivalent culture durations for all groups before imaging. We captured bright-field images with microscope systems (AmScope, Irvine, CA), and measured the gel diameters in the captured images by ImageJ where the fold changes to no cell control were taken for statistical analysis. At least three biological replicates were performed for each compound, and technically triplicates were included in each biological replicate. Information about small molecules in the study could be found in Table 4.

[2] = tested on: recurrent preterm labor; experiment: Weekly 17-OHPC injections in women with previous spontaneous preterm labor (longitudinal cohort); assay type: in vivo, human; details: number among 48 study participants; 250 mg weekly i.m., 16 to 36 weeks of gestation
Description: We performed a longitudinal patient recruitment in Alabama. The study involved 48 study participants who had previous history of spontaneous preterm labor (Supplementary Table 5 for patient information). All women admitted to the study were with singleton pregnancy and received weekly intramuscular injections of Makena 17-OHPC 250 mg beginning at 16 weeks until 36 weeks of gestation. Among the 48 study participants, 28 were considered responders to the treatment and delivered at term, whereas the remaining 20 were considered non-responders and had spontaneous preterm birth after the treatment. We acknowledged the possibility that those considered to be responders might include individuals who delivered at term owing to other reasons and not affected by the treatment. However, if we could observe genetic factors indeed differentiating the two groups, especially those involved in progesterone signaling, the observation then should be explained by progestin treatment.
We performed longitudinal recruitment of 48 women in Alabama who had previous history of spontaneous preterm labor. All women admitted to the study were with singleton pregnancy and received weekly intramuscular injections of Makena OHP 250 mg beginning at 16 weeks until 36 weeks of gestation. This study was approved by Stanford Institutional Review Board (IRB #21956). […]

[3] = tested on: preterm labor; details: chronic treatment; cited from earlier work
[4] = tested on: uterine contractility; details: in vivo; cited from earlier work
[5] = tested on: smooth muscle cells in other organs; details: literature curation; cited from earlier work
[6] = tested on: HUtSMCs; experiment: Cell viability of HUtSMCs treated with different concentrations of RKI-1447; assay type: cell-based, human
From the text: These experimental data provided quantitative guidance on its potential clinical deployment. […] As a potent inhibitor of the Rho-kinases ROCKI/II, RKI-1447 has been mainly investigated for therapeutic effects on cancer (Dyberg et al., 2019; Li et al., 2020; Patel et al., 2012), glaucoma (Cush et al., 1995), and nonalcoholic fatty liver disease (Wang and Jiang, 2020), with less focus on putative effects on modulating uterine contractility. […] These observations provided mechanistic basis for our drug discovery and experimental observations (FIGS. 5E and 5F).

[7] = tested on: preterm birth; details: daily low-dose; women of their first pregnancies; cited from earlier work
[8] = tested on: primary myometrial cell cultures; experiment: RNA-Seq of primary myometrial cell cultures treated with FSK or IL-1B (Stanfield et al., 2019a); assay type: cell-based, human; details: published RNA-Seq data re-examined; P=0.68
From the text: Performing functional enrichment analysis, we observed that the 69 Group I genes were highly enriched for functions associated with the regulation of muscle contraction (FDR=8.10e-4), more specifically with relaxation of muscle (FDR=2.71e-3, FIG. 3H). This explained their elevated expression prior to labor as well as their down-regulation upon delivery to promote muscle contractility.
Note that inflammatory factors are known to promote muscle contractility during labor (Khanjani et al., 2011; Mendelson et al., 2019), explaining the down-regulation of Group II genes before labor and their activation during labor. We examined primary myometrial cell cultures treated with IL-1B to mimic tissue-level inflammation at the labor onset (Stanfield et al., 2019a). […] In fact, Group-II genes included a key inflammatory activators AP-1 (with its subunits JUN and FOS), which play a central role in regulating smooth muscle contractility proteins at labor onset (Mendelson et al., 2019).
We downloaded normalized FPKM gene expression matrix of RNA-seq data (GSE134896 and GSE163773) (Ackerman et al., 2021; Stanfield et al., 2019a) from GEO for primary myometrial cell cultures following treatment with Forskolin and Interleukin-1B, and for primary myometrium samples harvested from 31 women at labor. […]

Brc1c(Br)c(Br)c2[nH]nnc2c1Br [4,5,6,7-tetrabromobenzotriazole]
effect on HUtSMC contraction, contractile state stimulated by oxytocin [1]: attenuated myometrial contraction
effect on HUtSMC contraction, contractile state stimulated by oxytocin ([1]; listed as TBBt): attenuated oxytocin-induced myometrial contractility
effect on myometrial cell contractility in either quiescent or contractile state [1]: altered myometrial contractility
reduction of oxytocin-induced myometrial contractility [1]: 15.73%

CCCCCC(=O)O[C@]1(C(C)=O)CC[C@H]2[C@@H]3CCC4=CC(=O)CC[C@]4(C)[C@H]3CC[C@@]21C [17-OHPC, 17-hydroxyprogesterone caproate]
non-responders (spontaneous preterm birth after the treatment) [2]: 20
responders (delivered at term) [2]: 28

O=c1cc(N2CCOCC2)oc2c(-c3ccccc3)cccc12 [LY294002]
reduction of oxytocin-induced myometrial contractility [1]: 15.73%

COc1cccc(-c2cc(=O)c3ccccc3o2)c1N [PD-98059]
efficacy in a rat model of preterm labor [3]: demonstrated efficacy
effect on myometrial cell contractility in either quiescent or contractile state [1]: absence of signal

O=C(NCc1cccc(O)c1)Nc1nc(-c2ccncc2)cs1 [RKI-1447]
effect on uterine contractility in rats [4]: attenuated uterine contractility
side effects on smooth muscle cells in other organs, particularly cardiotoxicity [5]: minimal effects
concentration at emergence of cellular toxicity ([6]; HUtSMCs): 50 µM
effect on cell viability ([6]; over a wide dose-range): little effect on cell viability
dose-response relationship on myometrial smooth muscle relaxation ([1]; 0 to 10 μM, quiescent (PBS) and contractile (OXY) states): dose-dependent effects on myometrial smooth muscle relaxation
effect on HUtSMC contraction, contractile state stimulated by oxytocin [1]: attenuated myometrial contraction; also recorded: attenuated oxytocin-induced myometrial contractility
effect on myometrial cell contractility in the presence and absence of oxytocin ([1]; both states): the only drug to prevent myometrial cell contractility in the presence and absence of oxytocin
effect on myometrial cell contractility in either quiescent or contractile state [1]: altered myometrial contractility
effect on HUtSMC contraction, quiescent state [1]: strongly reduced the contraction

C[S+]([O-])c1ccc(-c2nc(-c3ccncc3)c(-c3ccc(F)cc3)[nH]2)cc1 (centres unmarked) [SB-203580]
effect on HUtSMC contraction, contractile state stimulated by oxytocin [1]: increased the contraction
effect on myometrial cell contractility in either quiescent or contractile state [1]: altered myometrial contractility
effect on HUtSMC contraction, quiescent state [1]: significantly induced myometrial cell contraction

N#CC(=C(/N)Sc1ccccc1N)/C(C#N)=C(\N)Sc1ccccc1N [U0126]
efficacy in a rat model of preterm labor [3]: demonstrated efficacy
effect on myometrial cell contractility in either quiescent or contractile state [1]: absence of signal

CN1CCN(Cc2ccc(-c3cnc4[nH]cc(-c5ccc6[nH]ccc6c5)c4c3)cc2)CC1 [URMC-099]
effect on HUtSMC contraction, contractile state stimulated by oxytocin [1]: attenuated myometrial contraction; also recorded: attenuated oxytocin-induced myometrial contractility
effect on myometrial cell contractility in either quiescent or contractile state [1]: altered myometrial contractility
reduction of oxytocin-induced myometrial contractility [1]: 15.73%

CC(=O)Oc1ccccc1C(=O)O [aspirin]
reduction of the risk of early preterm birth (before 34 gestational weeks) [7]: 25%
reduction of the risk of preterm birth (before 37 gestational weeks) [7]: 11%

[H]/N=C(/N)SCCCn1cc(C2=C(c3cn(C)c4ccccc34)C(=O)NC2=O)c2ccccc21 [bisindolylmaleimide-ix]
effect on HUtSMC contraction, contractile state stimulated by oxytocin [1]: attenuated myometrial contraction; also recorded: attenuated oxytocin-induced myometrial contractility
effect on myometrial cell contractility in either quiescent or contractile state [1]: altered myometrial contractility
reduction of oxytocin-induced myometrial contractility [1]: 15.73%

IL-1B: cytokine used to mimic tissue-level inflammation at the labor onset
response of Group II genes to treatment [8]: overall not responsive
